In data set [1] the target is T1, Plk1 PBD (cellular lysates expressing HA-EGFP-Plk1) (Homo sapiens, UniProt P53350).
T1 construct: cell lysates containing full-length Plk1 were incubated with test peptides; expressed in transfected cells; host or cells: 293A cells infected with adenovirus expressing HA-EGFP-Plk1, arrested with nocodazole
As to the kind of experiment: ELISA-based PBD-binding inhibition assay. The note with it: immobilized biotinylated p-T78 peptide, lysates with full-length Plk1.
Description: An ELISA-based PBD-binding inhibition assay was carried out using an immobilized biotinylated 9-mer p-T78 peptide {Biotin-C—(CH2)6-(CH2)6-DPPLHSpTAI-NH2} and the cellular lysates expressing HA-EGFP-Plk1.
A biotinylated p-T78 peptide was first diluted with 1× coating solution (KPL Inc., Gaithersburg, Md.) to the final concentration of 0.3 μM, and then 100 μl of the resulting solution was immobilized onto a 96-well streptavidin-coated plate (Nalgene Nunc, Rochester, N.Y.). The wells were washed once with PBS plus 0.05% Tween20 (PBST), and incubated with 200 μl of PBS plus 1% BSA (blocking buffer) for 1 h to prevent non-specific binding. […] Following the incubation, ELISA plates were washed 4 times with PBST. To detect bound HA-EGFP-Plk1, the plates were probed for 2 h with 100 μl/well of anti-HA antibody at a concentration of 0.5 μg/ml in blocking buffer and then washed 5 times. The plates were further probed for 1 h with 100 μl/well of HRP-conjugated secondary antibody (GE Healthcare, Piscataway, N.J.) at a 1:1,000 dilution in blocking buffer. The plates were washed 5 times with PBST and incubated with 100 μl/well of 3,3′,5,5′-tetramethylbenzidine (TMB) solution (Sigma, St. Louis, Mo.) as a substrate until a desired absorbance was reached. […] The optical density (O.D.) was measured at 450 nm by using an ELISA plate reader (Molecular Devices, Sunnyvale, Calif.).

Data set [2] is described as follows: Culture medium hydrolysis experiment. In kind it is in vitro ADME. The note with it: for half-life at 1 μM: 1 μM peptide in culture medium. The method, then:
(§1) There are three types of hydrolysis experiment performed in these peptides.
Type 2: 1 μM peptide in culture medium and 200 μM peptide in culture medium.
(§2) Culture medium hydrolysis experiment. Culture medium was placed in centrifuge tube. A solution of selected peptide in methanol was added to the culture medium. Final concentration of the peptide was 1 μM or 200 μM, MeOH was less than 1% in solution. The reaction mixture was then incubated at 37° C. by shaking. At different time point, certain amount (50 μL) of reaction mixture was taken and placed in a separate Eppendorf tube containing 1 equiv. volume MeCN (50 μL). After work-up, the hydrolysis product was monitored by LC-MS.

The next data set concerns HeLa cells. In kind it is cell-based. As for the experimental part: Cell culture, analysis of the cell proliferation and aberrant mitotic population, and indirect immunofluorescence microscopy: HeLa cervical carcinoma cell line CCL2, 293A and 293T cells were cultured as recommended by the American Type Culture Collection (Manassas, Va.), were cultured as recommended by American Type Culture Collection (Manassas, Va.). To prepare mitotic 293A cells expressing HA-EGFP-Plk1, cells were infected with adenovirus expressing HA-EGFP-Plk1 and arrested with 200 ng/ml of nocodazole for 16 h. To analyze the effect of the indicated compounds in cultured cells, logarithmically growing HeLa cells were treated with 200 μM of the indicated compounds for 24 h (a sufficient amount of time to enrich mitotically-arrested cells), treated with Hoechst 33342 for […], and then fixed with 4% paraformaldehyde.
Cell-based growth inhibition assays were performed.

Data set [3] is described as follows: Cell lysate hydrolysis experiment. In kind it is in vitro ADME. Particulars: 1 μM peptide in cell lysate, 37° C.; read-out: Half-life of peptides in cell lysate. As for the experimental part: as §1
Type 3: 1 μM peptide in cell lysate.
Cell lysate hydrolysis experiment. Cell lysate was placed in 96-well plate. A solution of selected peptide in DMSO was added to the cell lysate. Final concentration of the peptide was 1 μM, DMSO was less than 1% in solution. The reaction mixture was then incubated at 37° C. by shaking. At different time point, 1 equiv. by volume of MeCN was added to well to quench the reaction. After work-up, the hydrolysis product was monitored by LC-MS.

The next data set has as its system Porcine Liver Esterase. As to the kind of experiment: PLE hydrolysis experiment (enzymatic deprotection of POM-protected peptides). The format is in vitro ADME. The note with it: pig, 200 μM peptide, pH 7.4, 37° C. As for the experimental part: Hydrolysis assays were run on five POM-protected peptides (see below):
as §1
Type 1: 200 μM peptide with Porcine Liver Esterase (58 units, according the protocol presented in Srivastva, D. N.; Farquhar, D. Bioorg. Chem. 1984, 12, 118).
as §2, with “PLE hydrolysis” for “Culture medium hydrolysis”, “experiment. 0.05M potassium phosphate buffer (pH 7.4)” for “experiment. Culture medium”, “the buffer.” for “the culture medium.”, “was” for “was 1 μM or”, “solution. Take 1 mL of the above solution, then added Pig liver esterase (57.6 units).” for “solution.”

[4] abbreviates: 37° C., read-out: Half-life of peptides in culture medium.

Numbered stars: 1 amine (or outer) side, 2 acyl side, 3 side chain; on linkers, the order of the positions; unused ones are H or OH. Square brackets hold non-standard residues; d marks the D form. Peptide text beside a SMILES is read from it. X1 = C[C@@H](OP(=O)(OCOC(=O)C(C)(C)C)OCOC(=O)C(C)(C)C)[C@H](N[*:1])C(=O)[*:2]; X2 = C[C@@H](CP(=O)(OCOC(=O)C(C)(C)C)OCOC(=O)C(C)(C)C)[C@H](N[*:1])C(=O)[*:2]; His(π-(CH2)8Ph) = N[C@@H](Cc1cncn1CCCCCCCCc1ccccc1)C(=O)O

T1 sequence (P53350 whole entry): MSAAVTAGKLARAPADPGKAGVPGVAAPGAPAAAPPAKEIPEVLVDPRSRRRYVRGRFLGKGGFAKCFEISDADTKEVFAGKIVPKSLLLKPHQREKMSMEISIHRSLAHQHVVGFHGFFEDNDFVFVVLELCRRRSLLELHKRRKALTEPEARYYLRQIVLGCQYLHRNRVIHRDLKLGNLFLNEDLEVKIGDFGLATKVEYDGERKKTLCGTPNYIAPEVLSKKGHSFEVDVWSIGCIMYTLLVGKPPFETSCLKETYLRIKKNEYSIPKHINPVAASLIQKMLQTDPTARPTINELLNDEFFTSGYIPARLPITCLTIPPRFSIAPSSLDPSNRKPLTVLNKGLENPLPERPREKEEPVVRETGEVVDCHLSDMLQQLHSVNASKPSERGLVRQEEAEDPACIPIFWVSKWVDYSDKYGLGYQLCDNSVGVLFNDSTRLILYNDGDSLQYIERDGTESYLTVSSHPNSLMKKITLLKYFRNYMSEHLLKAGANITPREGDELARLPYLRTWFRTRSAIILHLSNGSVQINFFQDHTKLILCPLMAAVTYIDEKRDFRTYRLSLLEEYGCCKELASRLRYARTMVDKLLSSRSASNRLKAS

With `CC(=O)N1CCC[C@H]1C(=O)N[C@@H](CC(C)C)C(=O)N[C@@H](Cc1c[n+](CCO)cn1CCCCCCCCc1ccccc1)C(=O)N[C@@H](CO)C(=O)N[C@H](C(N)=O)[C@@H](C)OP(=O)(O)OCOC(=O)C(C)(C)C` [Compound A10], the IC50 worked out at 0.0093 µM in data set [1] and 57 µM with HeLa cells. Moreover, the half-life at 1 μM was found to be 6.87 h in data set [2] (setting [4]) and 1.48 h in data set [3]. For the same compound, in data set [2] (200 μM peptide in culture medium, 24 h), the “hydrolysis product detected after 24 h incubation” value was “^a<5% hydrolysis product could be detected after 24 h incubation”. In addition, the half-life at 200 μM with Porcine Liver Esterase amounted to 4 h.

In the data set with Porcine Liver Esterase, `CC(=O)N1CCC[C@H]1C(=O)N[C@@H](CC(C)C)C(=O)N[C@@H](Cc1c[nH]cn1)C(=O)N[C@@H](CO)C(=O)N[C@H](C(N)=O)[C@@H](C)OP(=O)(OCOC(=O)C(C)(C)C)OCOC(=O)C(C)(C)C` [Compound A1, Ac-Pro-Leu-His-Ser-Thr(PO2POM2)-amide] (Ac-PLHS[X1]-NH2) showed a half-life at 200 μM of 0.113 h.

`CC(=O)N1CCC[C@H]1C(=O)N[C@@H](CC(C)C)C(=O)N[C@@H](Cc1c[nH]cn1)C(=O)N[C@@H](CO)C(=O)N[C@H](C(N)=O)[C@@H](C)CP(=O)(OCOC(=O)C(C)(C)C)OCOC(=O)C(C)(C)C` [Compound A3] (Ac-PLHS[X2]-NH2) yielded a half-life at 200 μM with Porcine Liver Esterase of 0.085 h.

As for `CC(=O)N1CCC[C@H]1C(=O)N[C@@H](CC(C)C)C(=O)N[C@@H](Cc1cncn1CCCCCCCCc1ccccc1)C(=O)N[C@@H](CO)C(=O)N[C@H](C(N)=O)[C@@H](C)OP(=O)(OCOC(=O)C(C)(C)C)OCOC(=O)C(C)(C)C` [Compound A5] (Ac-PL[His(π-(CH2)8Ph)]S[X1]-NH2), the half-life at 1 μM in data set [2] (setting [4]) was 0.537 h; in data set [3], 2.32 h. Moreover, the half-life at 200 μM in data set [2] (200 μM peptide in culture medium, 37° C., read-out: Half-life of peptides in culture medium) is 7.43 h; with Porcine Liver Esterase, 1.9 h.

The values are drawn from patent US10047122B2, “Peptide and peptide mimetic binding antagonists of polo-like kinase 1 polo box domain and methods of use” (The United States of America, as represented by the …, priority 2013, dated 2018).
